Reference: US10153510B2, “Non-aqueous redox flow batteries including 3,7-perfluoroalkylated phenothiazine derivatives” (University of Kentucky Research Foundation, priority 2014, dated 2018)
≈ marks a conversion by molar mass, not a printed value. Where “and” joins values, the source holds several entries; their conditions need not be identical. Identical values can stand only once. Like-named read-outs stand apart in the source and are kept apart here.

How the values were obtained:
[1] = Stability rating of phenothiazine derivatives (Table 2 compilation); format: physicochemical
Description: (§1) Table 2 includes a compilation of data related to phenothiazine derivatives overcharge data of phenothiazine compounds as well as whether the compounds are practical for use in redox flow batteries. Some phenothiazine derivatives have solubility and stability sufficient for overcharge protection, they are not sufficiently soluble to be practical for redox flow applications. As exemplified in Table 2, EPT and DClEPT are practical for overcharge protection but are not practical for redox flow.
(§2) The data includes overcharge data at 100% overcharge for EPT, DBrEPT, DClEPT, BCF3EPT and DCNEPT from Ergun, et al. Chem. Comm., 2014, 50, 5339-5341. (30) Overcharge data at constant overcharge for EPT and BCF3EPT is derived from the studies described in Kaur et al., J. Materials Chemistry A, 2014, 2, 18190-18193. (29) Overcharge data at 100% overcharge for PT, MPT and EPT provided in Table 2 was derived from studies described in Narayana et al. ChemPhysChem, 2015, 16, 1179-1189. (32) Overcharge results for BCF3CF2EPT and BCF3(4-CF3C6H4)PT are provided in FIGS. 10 and 11, respectively.

[2] = Cyclic voltammetry, half wave redox potentials; format: physicochemical; conditions: 20 mV/s; for Low potential event vs. Li+/0: 5 mM analyte in 0.2 M LiBF4 in PC; for High potential event vs. Li+/0: 5 mM in 0.2 M LiBF4 in PC, (a) irreversible oxidation potential estimated from forward wave and estimated reverse wave
Experimental: (§3) Electrochemical experiments were performed in an argon-filled glovebox at room temperature. Cyclic voltammetry (CV) measurements were performed in a three-electrode cell with a 3 mm diameter glassy carbon working electrode, Pt wire counter electrode, and Li foil reference electrode; voltammograms were taken of 0.2 M LiBF4 in PC containing 5 mM analyte using a CH Instruments 605E potentiostat. For UV-vis spectra of neutral compounds, catholytes were dissolved at 0.2 mM or 5 mM in 0.2 M LiBF4 in PC in glovebox and were removed in special optical glass cuvettes (Starna) after sealing with Teflon caps. The solutions were subsequently monitored for 5 h on an Agilent 8453 diode-array spectrometer.
Cyclic voltammetry was used to characterize the electrochemical behavior of BCF3EPT and to characterize DBBB and TMeQ for comparison with reported data. The individual redox events for these electro-active materials can be used to estimate the open-circuit voltage (OCV) of an ORFB containing each catholyte-anolyte pair. LiBF4 (0.2M) was used in propylene carbonate (PC) for these experiments to allow for direct comparison with the previously reported DBBB/TMeQ battery. The voltammograms of BCF3EPT show a reversible first oxidation at a potential of 3.9 V vs. Li+/0, which corresponds to generation of the radical cation, followed by an irreversible second oxidation at ca. 4.4 V vs. Li+/0 (FIG. 2a) corresponding to formation of the dication. […] No peaks corresponding to the reduction of the neutral compounds was observed during the anodic scans of BC3EPT and DBBB in this electrolyte. […] The redox potentials of BCF3EPT and DBBB are similar, thus it is contemplated that they will give similar cell voltages when coupled with TMeQ in an ORFB.

[3] = Solubility of phenothiazine derivatives (Table 2 compilation); format: physicochemical; conditions: electrolyte not stated
Description: as §1, §2

[4] = UV-vis stability of neutral and radical-cation forms (bulk electrolysis); format: physicochemical; conditions: for stability of neutral compound by UV-vis: 0.2 mM and 5 mM in LiBF4/PC, over 5 h
Experimental: as §3
Bulk electrolysis experiments were performed at 5 mM analyte in 0.2 M LiBF4 in PC with a Pt coiled-wire working electrode and a Li foil reference electrode, as well as a Pt wire counter electrode suspended in solution in a separate fitted glass tube. Electrolysis potentials were applied for 84 min in the glovebox, after which the solutions were diluted and removed from the glovebox in special optical glass cuvettes (Starna) sealed with Teflon caps. The solutions were subsequently monitored for 5 hours on an Agilent 8453 diode-array spectrometer.
Additionally, a compound that is stable in ambient conditions may be sensitive to electrolyte components, as was previously observed for a phenothiazine derivative with a tert-butyl group at the N position.(31) To compare the stability of the neutral and radical-cation forms of BCF3EPT to those of DBBB, UV-vis spectra were collected for both of the oxidation states of both compounds in LiBF4/PC. […] To simulate the charged species of each catholyte, the radical cation was generated by bulk electrolysis.

[5] = 1.2 M LiPF6 in EC/EMC; cited from earlier work
[6] = Maximum solubility of electro-active species in 0.2 M LiBF4 in PC; format: physicochemical; conditions: organic solvent or mixture, thermodynamic from solid, room temperature
Experimental: as §3
To study the behavior of the new catholyte BCF3EPT relative to DBBB, a set of batteries with the same concentration of electro-active species as the reported DBBB/TMeQ battery (0.05 M), as well as with the highest concentration possible for all three species, were identified for comparison. The maximum solubilities for DBBB, TMeQ and BCF3EPT in 0.2 M LiBF4 in PC were ca. 0.18 M, 0.37 M, and 1.2 M, respectively. […] Batteries were also fabricated at the highest concentration possible for BCF3EPT and TMeQ (0.35 M), beyond that which was possible for DBBB. By this measure, two sets of batteries were able to be tested at the same concentrations, including one near the limiting concentration of DBBB, and a third that allowed for analysis of a battery near the solubility limit of TMeQ.

[7] = organic solvent or mixture, read-out: Solubility

Row | Compound | Stability [1] | Solubility [3] | also measured
1 | COCCOc1cc(C(C)(C)C)c(OCCOC)cc1C(C)(C)C [DBBB, 2,5-di-tert-butyl-1,4-bis(2-methoxyethoxy)benzene] |  |  | Low potential event vs. Li+/0 [2]: 4.0 V; High potential event vs. Li+/0 [2]: 4.7 V and 4.7^(a) V; stability of neutral compound by UV-vis [4]: neither compound showed measurable signs of change; solubility at 1 h [6]: ~180 mM (≈ 60.9 mg/mL)
2 | CCN1c2ccccc2Sc2ccccc21 [EPT] | High |  | Solubility [3, 7]: 100 mM (≈ 22.7 mg/mL)
3 | CN1c2ccccc2Sc2ccccc21 [MPT] | high | 100 mM (≈ 21.3 mg/mL) | 
4 | c1ccc2c(c1)Nc1ccccc1S2 [PT] | Low | 100 mM (≈ 19.9 mg/mL) | 
5 | Cc1ccc2nc(C)c(C)nc2c1 [TMeQ, 2,3,6-trimethyl quinoxaline] |  |  | Low potential event vs. Li+/0 [2]: 2.5 V; High potential event vs. Li+/0 [2]: 2.8 V; solubility at 1 h [6]: ~370 mM (≈ 63.7 mg/mL)

Further lines, with some results ahead:

Row | Stability [1] | Solubility [3] | Compound | also measured
6 | High |  | CCN1c2ccc(C#N)cc2Sc2cc(C#N)ccc21 [BCF3(4-CF3C6H4)PT] | 
7 | High |  | CCN1c2ccc(C(F)(F)C(F)(F)F)cc2Sc2cc(C(F)(F)C(F)(F)F)ccc21 [BCF3CF2EPT] | 
8 | high |  | CCN1c2ccc(C(F)(F)F)cc2Sc2cc(C(F)(F)F)ccc21 [BCF3EPT, 3,7-bis(trifluoromethyl)-N-ethylphenothiazine] | Low potential event vs. Li+/0 [2]: 3.9 V; Solubility [3, 7]: 1500 to 2000 mM (≈ 545 to 727 mg/mL); stability of neutral compound by UV-vis [4]: neither compound showed measurable signs of change; stability of radical cation (UV-vis, comparison) ([4]; 0.2 M LiBF4 in PC, 5 h period): significantly more stable; stability relative to DDB [5]: higher stability; solubility at 1 h [6]: ~1200 mM (≈ 436 mg/mL)
9 | high | 100 mM (≈ 38.5 mg/mL) | CCN1c2ccc(Br)cc2Sc2cc(Br)ccc21 [DBrEPT] | 
10 | high | low | CCN1c2ccc(C#N)cc2Sc2cc(C#N)ccc21 [DCNEPT] | 
11 | High | 100 mM (≈ 29.6 mg/mL) | CCN1c2ccc(Cl)cc2Sc2cc(Cl)ccc21 [DClEPT] | 
12 |  | Low | CCN1c2ccc([N+](=O)[O-])cc2Sc2cc([N+](=O)[O-])ccc21 [DNO2EPT] | 
